Experimental data: patent US20060211703A1, “Substituted alkyl-pyridazinones for the treatment of memory and learning malfunctions” (priority 2003, published 2006)
Entries after “also recorded” stand apart in the source; their conditions may differ.

Columns and labels:
[1] = test system: Male Wistar rats; experiment: step through-type passive avoidance learning test; assay type: in vivo, rat; conditions: 30 min before test, FIG. 1
Description: Male Wistar rats weighing 200-220 g were used. The animals were obtained from Charles River Co. They were kept in a room with normal 12-12 h light dark cycle (light on: 06:00) at relative humidity of 60±10%.
The experiment was performed in a five-channel “step through”-type passive avoidance learning apparatus. The equipment consisted of to adjacent Plexi-glass box of 20×20×16 cm. One of them was made of regular transparent Plexi-glass and the other one was made of black, non-transparent Plexi-glass. The boxes were connected with a 7.5×8 cm passageway, equipped with a computer-controlled guillotine-door. The passage of the rats through the door was detected by infrared photocells arranged in two parallel lines in the opening of the passageway. The door was automatically closed when the animals passed through. The dark compartment was equipped with stainless steel grid floor through which electric foot shocks could have been delivered to the animals. […]
The individually numbered animals were placed into the light compartment of the equipment. […] Step through latency was automatically determined. […]
After 24 h the animals were placed again in the light compartment of the test apparatus and step-through latency was measured as described at Acquisition day, except that no foot shock was applied to the animals in any group on the second day. […]

[2] = known anxiolytic compounds, comparison statement; cited from earlier work

Row | Structure (SMILES) | step-through latency into the dark compartment (effect on acquisition / learning) ([1]; 1 mg/kg ip. at Day 1 (Acquisition), latency measured at Day 2, vs shocked vehicle control) | step-through latency into the dark compartment (effect on recall / long term memory) ([1]; 1 mg/kg ip. at Day 2 (Retention), vs shocked vehicle control) | effect on memory [2]
1 | O=c1cc(NCCN2CCN(c3cccc4c3OCCO4)CC2)cn[nH]1 [compound A, 5-[2-[4-(2,3-dihydro-benzo[1,4]dioxine-5-yl)-piperazine-1-yl]-ethylamine]-2H-pyridazine-3-one] | significantly increased; also recorded: further increased | significantly increased | –
2 | CN1C(=O)CN=C(c2ccccc2)c2cc(Cl)ccc21 [diazepam] | – | – | deleterious
